For data set [1], the system named is HBV. Kind of data set: Anti-HBV activity in stable transfected HepG2.2.15 cell line (HBV DNA from secreted virions, realtime PCR). It counts as cell-based. Conditions: Hepatitis B virus, HepG2.2.15, 144 h, HepG2.2.15 cells, 6 days of treatment, secreted virion HBV DNA; read-out: HepG2 2.15 EC50.
Data set [2] deals with HBV. Kind of data set: Anti-HBV activity in HepG2.117 cell line (Tet-off, intracellular HBV DNA, realtime PCR). It counts as cell-based. Particulars: Hepatitis B virus, HepG2.117, 72 h, HepG2.117 cells, 3 days of treatment, intracellular HBV DNA; read-out: HepG2 117 EC50.
Data set [3] relates to HepG2 cells. The data set is described as follows: Cytotoxicity in HepG2 cells, 4 days, Resazurin assay. Conditions: read-out: HepG2 4 days CC50; HepG2 cells, 4 days, Resazurin. Background: The colour change of resazurin is a common sign of viable cells or microbes.
Data set [4] can be described thus: Cytotoxicity in HepG2 cells using CellTiter-Blue (6 days). Conditions: human.
Data set [5] in a line: Cytotoxicity in HepG2 cells, 4 days, Resazurin assay. Particulars: human.
The test system of data set [6] is HepG2 cells. Kind of data set: Cytotoxicity in HepG2 cells using CellTiter-Blue (6 days). Conditions: read-out: HepG2 6 days CC50, 6 days, CellTiter-Blue.

The values below come from patent publication US10676429B2, “Sulfamoyl-arylamides and the use thereof as medicaments for the treatment of hepatitis B” (priority 2012, dated 2020).

Turning to `O=C(Nc1ccc(F)cc1)c1cc(S(=O)(=O)NC2CCCCC2)ccc1F` [Compound 18], the EC50 – broadly, the concentration giving half of the maximal effect – stood at 0.78 µM with HBV [1] and 1.3 µM in the data set on HBV [2]. The 50% cytotoxic concentration (CC50) (as a rule, the concentration at which the toxic effect on the cells reaches its halfway point) with HepG2 cells [3] was > 50 µM. Besides, in data set [4], the midpoint of cytotoxicity, the CC50 at 6 days, lay at 51.6 µM.
Taken in the same sequence, the figures for `O=C(Nc1ccccc1)c1cc(S(=O)(=O)NC2CCCCC2)ccc1F` [Compound 19] were 0.66 µM, 0.6 µM, > 25 µM and 42.5 µM.
With `O=C(Nc1ccccc1)c1cc(S(=O)(=O)N2CCCCC2)c(Cl)cc1Cl` [Compound 20], the EC50 with HBV [1] is 0.5 µM; in the data set with HBV [2], 1 µM. Also, the CC50 at 4 days in data set [5] was 79.6 µM. Moreover, the CC50 in the data set with HepG2 cells [6] was > 25 µM.
As to `O=C(Nc1ccccc1)c1cccc(S(=O)(=O)NC2CCCC2)c1` [Compound 21], the concentration for a half-maximal effect (EC50) with HBV [1] turned out to be 0.6 µM; in the data set with HBV [2], 0.76 µM. This molecule also displayed a cytotoxic concentration (CC50) at 4 days in data set [5] (HepG2 cells) of 41.1 µM. In addition, the CC50 in the data set on HepG2 cells [6] is 27.2 µM.
For `Cc1cccc(NC(=O)c2cc(S(=O)(=O)N3CCCCC3)ccc2Cl)c1` [Compound 22], the half-maximal effective concentration (EC50) with HBV [1] is 0.52 µM. Moreover, in data set [4], the half-maximal cytotoxic concentration (CC50) at 6 days is > 25 µM.
On to `O=C(Nc1ccc(F)cc1)c1ccc(Cl)c(S(=O)(=O)N2CCCCCC2)c1` [Compound 23], for which the concentration giving a half-maximal response (EC50) stood at 0.66 µM in the data set with HBV [1] and 1.3 µM in the data set on HBV [2]. This molecule also displayed a half-maximal cytotoxic concentration (CC50) at 4 days in data set [5] (HepG2 cells) of 19.6 µM. The CC50 with HepG2 cells [6] was found to be 17 µM.
With `O=C(Nc1cccc(F)c1)c1cc(S(=O)(=O)N2CCCC2)c(Cl)cc1Cl` [Compound 24], the EC50 in the data set with HBV [1] was found to be 0.79 µM. In addition, the half-maximal cytotoxic concentration (CC50) at 6 days in data set [4] was > 25 µM.
As for `O=C(Nc1ccccc1)c1cc(S(=O)(=O)NCc2ccccc2)ccc1Cl` [Compound 25], the concentration for a half-maximal effect (EC50) in the data set on HBV [1] was determined as 0.8 µM; in the data set on HBV [2], 1.02 µM. Further, the 50% cytotoxic concentration (CC50) at 4 days in data set [5] (HepG2 cells) was > 6.25 µM. In addition, the half-maximal cytotoxic concentration (CC50) at 6 days in data set [4] was > 25 µM.
As for `CCN(CC)S(=O)(=O)c1ccc(Cl)c(C(=O)Nc2ccccc2)c1` [Compound 26], the EC50 in the data set with HBV [1] came out at 1.04 µM. For the same molecule, the CC50 in the data set on HepG2 cells [6] is > 25 µM.
As to `Cc1cccc(NC(=O)c2cc(S(=O)(=O)N3CCOCC3)ccc2Cl)c1` [Compound 27], the EC50 in the data set with HBV [1] amounted to 1.13 µM. Also, the CC50 at 6 days in data set [4] was > 25 µM.
On the same counts, the results for `O=C(Nc1ccc(F)cc1)c1cc(S(=O)(=O)N2CCOCC2)ccc1Cl` [Compound 29] are 1.39 µM and > 25 µM.
On the same counts, the results for `O=C(Nc1ccc(Br)cc1)c1ccc(Cl)c(S(=O)(=O)N2CCCCCC2)c1` [Compound 30] are 1.67 µM and > 25 µM.
`O=C(Nc1ccccc1)c1ccc(F)c(S(=O)(=O)NC2CCCCC2)c1` [Compound 31]: the EC50 with HBV [1] came out at 2.23 µM. In the data set on HepG2 cells [6], the 50% cytotoxic concentration (CC50) was 16.4 µM.
In the case of `COc1ccc(NC(=O)c2ccc(Cl)c(S(=O)(=O)N3CCCCCC3)c2)cc1` [Compound 32], the half-maximal effective concentration (EC50) with HBV [1] came out at 2.59 µM; in the data set with HBV [2] it was 4.58 µM. Further, the CC50 at 4 days in data set [5] (HepG2 cells) was > 25 µM. The molecule further gave a CC50 at 6 days in data set [4] of 9.9 µM.
Regarding `O=C(Nc1ccccc1Cl)c1ccc(Cl)c(S(=O)(=O)N2CCCCCC2)c1` [Compound 33], the concentration giving a half-maximal response (EC50) in the data set with HBV [1] worked out at 3.56 µM. The CC50 at 6 days in data set [4] was > 25 µM.
With `O=C(Nc1ccc(Cl)cc1)c1cc(S(=O)(=O)NC2CCCCC2)ccc1F` [Compound 38], the EC50 in the data set on HBV [1] is < 6.25 µM; in the data set on HBV [2] it was 15.5 µM. The same molecule returned a CC50 at 4 days in data set [5] (HepG2 cells) of 22.1 µM. The molecule further returned a cytotoxic concentration (CC50) at 6 days in data set [4] of 18.4 µM.
In the case of `O=C(Nc1ccccc1Cl)c1cc(S(=O)(=O)NC2CCCCC2)ccc1F` [Compound 42], the EC50 in the data set on HBV [1] is 11.6 µM; in the data set with HBV [2], > 25 µM. Moreover, in data set [4], the CC50 at 6 days stood at 37.2 µM.
As for `O=C(Nc1cccc(Cl)c1)c1cc(S(=O)(=O)NC2CCCCC2)ccc1F` [Compound 43], the concentration for a half-maximal effect (EC50) is 15.1 µM in the data set with HBV [1] and > 25 µM with HBV [2]. Besides, the CC50 at 4 days in data set [5] (HepG2 cells) is > 25 µM. Moreover, it took 36.3 µM to reach half-maximal cytotoxicity in data set [4] (CC50 at 6 days).
As to `Cc1c(F)ccc(NC(=O)c2cccc(S(=O)(=O)NC3(C)COC3)c2)c1C` [Compound 115], the EC50 with HBV [1] stood at 2.74 µM; with HBV [2], 1.65 µM. In the data set with HepG2 cells [3], the CC50 was > 25 µM.
Taken in the same sequence, the figures for `Cc1c(NC(=O)c2cccc(S(=O)(=O)N[C@H]3CCOC3)c2)ccc(F)c1F` [Compound 118] were 3.63 µM, 1.91 µM and > 25 µM.
On the same counts, the results for `Cc1cc(NC(=O)c2cccc(S(=O)(=O)NC3(C)COC3)c2)c(C)cc1F` [Compound 119] are 3.06 µM, 1.91 µM and > 25 µM.
